System: D1 cells
Experiment: Maturation of D1 dendritic cells (surface MHC class II, flow cytometry)
Type: cell-based, BALB/c mouse
Conditions: overnight incubation, 0.45 nmoles/mL; […]

In the case of “ALNNRFQIKGVELKSKTYQRTRALV [[Th]-Lys-[CTL]]”, the “maturation of D1 cells (percentage expressing high levels of surface MHC class II)” value is reported as ≤ 26%.

From patent US7833532B2, “Immunogenic lipopeptides comprising T-helper and cytotoxic T lymphocyte (CTL) epitopes” (The Council of The Queensland Institute of Medical Research, priority 2002, dated 2010)
